# According to patent US5532229A, “Topical administration of vitamin D to mammals” (priority 1994, dated 1996):
# What was measured:
# [1] = Experiment 1: serum radioactivity after one administration of radiolabelled vitamin D3 (intracardiac, gastric, dermal); assay type: in vivo, Wistar rats
# Text: Each point is the mean of 3-6 rats;
# A comparison of serum radioactivity after one administration of radiolabelled vitamin D3 via the skin or gut, compared to intravascular injection.
# The protocols and procedures used in this work were approved beforehand by an animal-care committee at the University of Toronto. Wistar rats, 250-g weight and fed normal diet, were divided into three groups of six, and each rat was given 400,000 cpm of […] (57 mCi/mmol, Amersham, UK). One group was given the [^14 C]-vitamin D3 by intracardiac injection; one group was given the tracer through an infant-feeding tube, directly into the stomach; and one group received the dose by application in 50 μL ethanol to a 2×2 cm patch of shaved skin on the lower back. Blood was taken by bleeding 0.25 mL from the tail, from three rats at a time, for each time indicated in the graph, except for the final sample at 3 wk, which is from all rats at the time of killing with an anesthetic overdose. The serum was counted in a Beckman LS6800 beta-counter and results are corrected for background, sample volume, and rat weight.
# [2] = Experiment 5: toxic effects after 2 weeks of high doses of dermal or oral vitamin D3; assay type: in vivo, Male Wistar rats
# Protocol: Toxicity: Long-term effects of increasing doses of vitamin D3 given dermally or by gastric tube.
# This experiment was to compare potential toxic effects of vitamin D3 given for a 2 wk period, at the near-fatal dose of 800 μg per day by gastric tube, or by dermal administration at 800 μg/day or 2600 μg/day. Another goal was find evidence of saturable dermal uptake by including [^14 C]-vitamin D3 to monitor its removal from the skin at the high doses of vitamin D3.
# Male Wistar rats, 190±10 g were obtained and divided into three groups of 7. They were treated for 2 weeks with one the following: 2000 nmol/day of vitamin D3 by gastric tube; 800 μg/day applied to a 2×2 cm patch of skin on the back; 2600 μg/day skin. The day before killing, 66,000 counts per minute of [^14 C]-vitamin D3 was applied along with the dermal dose to permit a determination of uptake from the skin. The rats were killed after two weeks for analysis of serum, urine, kidney, and aorta. The calcium in urine and acid-treated homogenate of kidney was measured by chemical colorimetry; aorta calcium was measured by treating with nitric acid measuring calcium by atomic absorption.
# [3] = Experiment 2: uptake of [14C]-vitamin D3 tracer into serum and conversion to [14C]-25(OH)D3; assay type: in vivo, Male Wistar rats; conditions: tracer added to last day's dose
# Protocol: One dose of [carbon-14]-labelled vitamin D3 was given at the time of the last of 14 daily doses of nonradioactive vitamin D3. The graphs show the uptake and metabolism of one [^14 C]-vitamin D3 dose during the course of gastric or dermal supplementation with vitamin D3. The tracer was given in addition to the usual, 8 μg/day vitamin D3 dose, and by the same route. Radioactivity in serum was isolated by chromatography to measure that which elutes as vitamin D3, or as […], Each point is the mean of results from six rats;
# Uptake of radioactive vitamin D3 from skin or gut during the longer term treatment with vitamin D3 at 20 nmol/day.
# The previous experiment 1 involved only one acute dose of a minute, tracer amount of vitamin D3. It remained possible that dermal application could not deliver a larger, more nutritionally relevant amount of vitamin D3. This experiment 2 looked at what happens when vitamin D3 is given during the course of daily treatment with a moderate amount of vitamin D3.
# (§1) After 30 days, the rats were divided into three groups of 6: one group continued with no supplement, one group was given daily vitamin D3 supplement, 8 μg/day either by gastric tube, the third received the supplement by application to the skin in 50 μL ethanol. Vitamin D3 was given for 3 wk. The day before the rats were killed, the vitamin D3 dose was supplemented with [^14 C]-labelled vitamin D3, 915,000 cpm per rat. Blood was obtained from the tail of each rat at 3 h, 9 h, and by heart puncture when the rats were anesthetized for killing, 24 h after giving the tracer. The blood was extracted and chromatographed to distinguish [^14 C]-vitamin D3 from the [^14 C]-25(OH)D3generated from it. Radioactivity was also measured in the liver, kidney, and adipose tissue. Serum nonradioactive 25(OH)D3 was also measured.
# [4] = Experiment 2: serum 25(OH)D3 after 3 wk vitamin D3 supplement; assay type: in vivo, Male Wistar rats; conditions: 8 μg/day, relative to marginal-diet group
# Protocol: as §1
# Biochemical measurements. 1,25(OH)2 D3 in serum was measured by calf-thymus receptor-binding assay after initial purification of 1,25(OH)2 D3 with C18-OH cartridges (5). For the serum volumes that were minimal, serum was measured out in 50 μL increments, and the final result was adjusted for the volume of sample analyzed. […] The material eluting as 1,25(OH)2 D3 was evaporated and redissolved in acetonitrile: water for further purification with C18-OH cartridges and quantitation by thymus receptor assay, as described for serum. […]
smiles,measurement,setting,value
C=C1CC[C@H](O)C/C1=C/C=C1\CCC[C@]2(C)[C@@H]([C@H](C)CCCC(C)C)CC[C@@H]12 [vitamin D3],difference in serum radioactivity between dermal and oral groups,[1]; 3 wk,not statistically significant
same,vitamin D3 delivered into the blood compared to direct injection,[1]; dermal and gastric,less than half
same,rate of uptake into the circulation from the skin vs gut,"[1]; one tracer dose, rats",more slowly than from the gut
same,"radioactivity in kidney, liver, and adipose tissues",[1]; radioactive vitamin D3,paralleled to the serum levels
same,urinary calcium (above the usual rat normal),[2]; all treatments,> 1 μmol/mmol creatinine
same,serum calcium (above the normal rat value),"[2]; all treatments, 2 weeks",> 2.4 mmol/L
same,calcium accumulation in kidney and aorta,"[2]; by gastric tube, 2 weeks",substantial in both the kidney and the aorta
same,Urine Ca/create Day 4,[2]; dermal 800 μg/day,7.9
same,Urine Ca/create Day 13,[2]; dermal 800 μg/day,10.0
same,Weight gain,[2]; dermal 800 μg/day,91 g/2 wk
same,Total Aorta Calcium,"[2]; dermal 800 μg/day, 2 weeks",< 10 nmol
same,Total Renal Calcium,"[2]; dermal 800 μg/day, 2 weeks",13.3 µmol/L
same,Urine Ca/create Day 4,[2]; dermal 2600 μg/day,10.3
same,Urine Ca/create Day 13,[2]; dermal 2600 μg/day,10.8
same,Weight gain,[2]; dermal 2600 μg/day,76 g/2 wk
same,Total Aorta Calcium,"[2]; dermal 2600 μg/day, 2 weeks",< 10 nmol
same,Total Renal Calcium,"[2]; dermal 2600 μg/day, 2 weeks",13.3 µmol/L
same,difference in serum 25(OH)D3 between the two dermal groups,[2]; dermal 800 vs 2600 μg/day,no statistical difference
same,Weight gain,"[2]; dermal, same or higher doses, 2 wk",normal weight gain
same,calcium accumulation in kidney and aorta,"[2]; dermally treated, 2 weeks",no evidence of either effect
same,Urine Ca/create Day 4,[2]; gastric 800 μg/day,12.0
same,Urine Ca/create Day 13,[2]; gastric 800 μg/day,9.9
same,Weight gain,[2]; gastric 800 μg/day,7 g/2 wk
same,Total Aorta Calcium,"[2]; gastric 800 μg/day, 2 weeks",361 nmol
same,Total Renal Calcium,"[2]; gastric 800 μg/day, 2 weeks",77 µmol/L
same,"serum 1,25(OH)2 D3, gastric vs skin groups","[2]; gastric, 2 weeks","lower serum 1,25(OH)2 D3 concentrations than with either skin group"
same,Weight gain,"[2]; near-toxic gastric dose, 2 wk",prevented the rats from gaining weight
same,"rate of uptake into circulation, dermal vs gastric",[3],more slowly when given via the dermal route
same,increase in 25(OH)D3 with dermal relative to gastric supplementation,[4],59%
